Activity calls are given as the source filed them. No cut-off for these calls is given here.
Columns and labels:
MDA-MB-231 = assay: Cytotoxicity in human MDA-MB-231 cells assessed as reduction in cell viability incubated for 48 hrs by MTT assay; format: functional, cell-based; conditions: MDA-MB-231, 48 h
HepG2 [1] = assay: Cytotoxicity in human HepG2 cells assessed as reduction in cell viability incubated for 48 hrs by MTT assay; format: functional, cell-based; conditions: HepG2, 48 h
KB = assay: Cytotoxicity in human KB cells assessed as reduction in cell viability incubated for 48 hrs by MTT assay; format: functional, cell-based
Bel-7402 = assay: Cytotoxicity in human Bel7402 cells assessed as reduction in cell viability incubated for 48 hrs by MTT assay; format: functional, cell-based; conditions: Bel-7402, 48 h
SMMC-7721 = assay: Cytotoxicity in human SMMC7721 cells assessed as reduction in cell viability incubated for 48 hrs by MTT assay; format: functional, cell-based; conditions: SMMC-7721, 48 h
MGC-803 = assay: Cytotoxicity in human MGC803 cells assessed as reduction in cell viability incubated for 48 hrs by MTT assay; format: functional, cell-based; conditions: MGC-803, 48 h
SK-N-SH = assay: Cytotoxicity in human SK-N-SH cells assessed as reduction in cell viability incubated for 48 hrs by MTT assay; format: functional, cell-based
QGY-7703 = assay: Cytotoxicity in human QGY7703 cells assessed as reduction in cell viability incubated for 48 hrs by MTT assay; format: functional, cell-based; conditions: QGY-7703, 48 h
SGC-7901 = assay: Cytotoxicity in human SGC7901 cells assessed as reduction in cell viability incubated for 48 hrs by MTT assay; format: functional, cell-based; conditions: SGC-7901, 48 h
HepG2 [2] = assay: Antitumor activity against human HepG2 cells xenografted in Balb/C mouse assessed as inhibition of tumor growth at 30 mg/kg, iv dosed once per week for 30 days followed by 2 weeks observation relative untreated control; format: functional; conditions: read-out: TGI
HepG2 [3] = assay: Antitumor activity against human HepG2 cells xenografted in Balb/C mouse assessed as inhibition of tumor growth at 4 mg/kg, iv dosed once per week for 30 days followed by 2 weeks observation relative untreated control; format: functional; conditions: read-out: TGI
HepG2 [4] = assay: Antitumor activity against human HepG2 cells xenografted in Balb/C mouse assessed as inhibition of tumor growth at 8 mg/kg, iv dosed once per week for 30 days followed by 2 weeks observation relative untreated control; format: functional; conditions: read-out: TGI
HepG2 [5] = assay: Antitumor activity against human HepG2 cells xenografted in Balb/C mouse assessed as inhibition of tumor growth at 1.3 mg/kg, po qd for 30 days followed by 2 weeks observation relative untreated control; format: functional; conditions: read-out: TGI
Mus musculus [6] = assay: Toxicity in human HepG2 cells xenografted Balb/C mouse assessed as induction of gastrointestinal flatulence at 4 mg/kg, iv dosed once per week for 30 days followed by 2 weeks observation; format: organism-based; conditions: in vivo, 336 h
Mus musculus [7] = assay: Toxicity in human HepG2 cells xenografted Balb/C mouse assessed as induction of gastrointestinal flatulence at 8 mg/kg, iv dosed once per week for 30 days followed by 2 weeks observation; format: organism-based; conditions: in vivo, 336 h
Mus musculus [8] = assay: Toxicity in human HepG2 cells xenografted Balb/C mouse assessed as induction of gastrointestinal flatulence at 1/3 mg/kg, po qd for 30 days followed by 2 weeks observation; format: organism-based; conditions: in vivo, 336 h
Mus musculus [9] = assay: Toxicity in human HepG2 cells xenografted Balb/C mouse assessed as effect on mouse survival at 4 mg/kg, iv dosed once per week for 30 days followed by 2 weeks observation; format: organism-based; conditions: in vivo, 336 h
Mus musculus [10] = assay: Toxicity in human HepG2 cells xenografted Balb/C mouse assessed as effect on mouse survival at 8 mg/kg, iv dosed once per week for 30 days followed by 2 weeks observation; format: organism-based; conditions: in vivo, 336 h
Mus musculus [11] = assay: Toxicity in human HepG2 cells xenografted Balb/C mouse assessed as effect on mouse survival at 1.3 mg/kg, po qd for 30 days followed by 2 weeks observation; format: organism-based; conditions: in vivo, 336 h
Mus musculus [12] = assay: Toxicity in human HepG2 cells xenografted Balb/C mouse assessed as reduction in body weight at 4 mg/kg, iv dosed once per week for 30 days followed by 2 weeks observation; format: organism-based; conditions: in vivo, 336 h
Mus musculus [13] = assay: Toxicity in human HepG2 cells xenografted Balb/C mouse assessed as reduction in body weight at 8 mg/kg, iv dosed once per week for 30 days followed by 2 weeks observation; format: organism-based; conditions: in vivo, 336 h
Mus musculus [14] = assay: Toxicity in human HepG2 cells xenografted Balb/C mouse assessed as reduction in body weight at 1.3 mg/kg, po qd for 30 days followed by 2 weeks observation; format: organism-based; conditions: in vivo, 336 h
Mus musculus [15] = assay: Protection against LPS-induced lethal inflammation in C57BL/6 mouse model of sepsis assessed as survival at 4 mg/kg, po dosed 0.5 hrs before LPS injection followed by 4 mg/kg, po dosing at 1 hr, 4 hrs, and 8 hrs after LPS treatment; format: functional
[16] = Drug level in plasma of C57BL/6 mouse at 10 mg/kg, po measured up to 30 hrs by LC-MS/MS analysis; format: ADME, organism-based; conditions: in vivo
[17] = Drug metabolism in plasma of C57BL/6 mouse assessed as (9S)-9-Ethyl-9-hydroxy-3-isopropyl-2,3-dihydro[1,3]-oxazino[5,6-f ]pyrano[3',4':6,7]indolizino[1,2-b]quinoline-1,10,13(9H,12H,15H)-trione formation at 10 mg/kg, po measured up to 1 hr by LC-MS/MS analysis; format: ADME, organism-based; conditions: in vivo
[18] = Drug metabolism in plasma of C57BL/6 mouse assessed as (S)-8-Ethyl-8-hydroxy-2-isopropyl-8H-oxazolo[4,5-f ]-pyrano[3',4':6,7]indolizino[1,2-b]quinoline-9,12(11H,14H)-dione formation at 10 mg/kg, po measured up to 1 hr by LC-MS/MS analysis; format: ADME, organism-based; conditions: in vivo
[19] = Drug metabolism in plasma of C57BL/6 mouse assessed as (9S)-9-Ethyl-9-hydroxy-3-isopropyl-2,3-dihydro[1,3]-oxazino[5,6-f ]pyrano[3',4':6,7]indolizino[1,2-b]quinoline-1,10,13(9H,12H,15H)-trione formation at 10 mg/kg, iv measured up to 1 hr by LC-MS/MS analysis; format: ADME, organism-based; conditions: in vivo
A549 = assay: cells; conditions: Homo sapiens, A549, 48 h
Description: Cytotoxicity in human A549 cells assessed as reduction in cell viability incubated for 48 hrs by MTT assay

MCF7 = assay: cells; conditions: Homo sapiens, MCF7, 48 h
Description: Cytotoxicity in human MCF7 cells assessed as reduction in cell viability incubated for 48 hrs by MTT assay

[20] = Aqueous solubility of the compound; format: physicochemical; conditions: aqueous; read-out: solubility
Mus musculus [21] = assay: Toxicity in Balb/C mouse administered as daily dose for 1 week measured daily for up to 28 days; format: organism-based; conditions: in vivo
HepG2 [22] = assay: Antitumor activity against human HepG2 cells xenografted in Balb/C mouse assessed as inhibition of tumor growth at 2 mg/kg, iv dosed once per week for 30 days followed by 2 weeks observation; format: functional, organism-based
HepG2 [23] = assay: Antitumor activity against human HepG2 cells xenografted in Balb/C mouse assessed as inhibition of tumor growth at 2 mg/kg, iv dosed once per week for 30 days followed by 2 weeks observation relative untreated control; format: functional; conditions: read-out: TGI
[24] = molecular target: T1, DNA topoisomerase 1 (Homo sapiens) (UniProt P11387); assay: Inhibition of human recombinant topoisomerase-1-mediated DNA cleavage in at 50 uM using supercoiled pHOT-1 DNA incubated for 30 mins by ethidium bromide staining based agarose gel elctrophoresis method
T1 sequence (whole entry): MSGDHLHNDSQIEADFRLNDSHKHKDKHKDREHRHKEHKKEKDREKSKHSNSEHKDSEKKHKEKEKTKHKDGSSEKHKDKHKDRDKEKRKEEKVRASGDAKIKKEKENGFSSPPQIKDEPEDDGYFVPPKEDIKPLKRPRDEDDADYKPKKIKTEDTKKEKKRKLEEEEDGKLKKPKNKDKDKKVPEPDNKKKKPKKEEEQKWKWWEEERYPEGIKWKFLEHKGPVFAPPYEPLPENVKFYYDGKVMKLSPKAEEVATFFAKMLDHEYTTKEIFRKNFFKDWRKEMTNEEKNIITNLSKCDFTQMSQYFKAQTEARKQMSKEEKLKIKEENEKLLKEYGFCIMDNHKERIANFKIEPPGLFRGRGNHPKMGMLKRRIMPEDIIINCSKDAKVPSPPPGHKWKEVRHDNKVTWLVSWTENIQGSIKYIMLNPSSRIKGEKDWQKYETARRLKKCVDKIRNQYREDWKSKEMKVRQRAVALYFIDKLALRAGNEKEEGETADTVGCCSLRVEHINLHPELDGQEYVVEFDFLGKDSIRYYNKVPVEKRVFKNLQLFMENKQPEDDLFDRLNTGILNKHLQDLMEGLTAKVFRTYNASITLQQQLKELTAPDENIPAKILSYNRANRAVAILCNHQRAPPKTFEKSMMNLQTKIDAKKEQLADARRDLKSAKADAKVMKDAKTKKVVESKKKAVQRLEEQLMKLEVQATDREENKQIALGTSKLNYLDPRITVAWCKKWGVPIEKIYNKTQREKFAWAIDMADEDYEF

[25] = molecular target: T1, DNA topoisomerase 1 (Homo sapiens); assay: Inhibition of human recombinant topoisomerase-1-mediated DNA cleavage in at 100 uM using supercoiled pHOT-1 DNA incubated for 30 mins by ethidium bromide staining based agarose gel elctrophoresis method
Mus musculus [26] = assay: Toxicity in human HepG2 cells xenografted Balb/C mouse assessed as reduction in body weight at 2 mg/kg, iv dosed once per week for 30 days followed by 2 weeks observation; format: organism-based; conditions: in vivo, 336 h

CC[C@@]1(OC(=O)CNC(=O)CCC(=O)O)C(=O)OCc2c1cc1n(c2=O)Cc2cc3c4c(ccc3nc2-1)OC(C(C)C)NC4=O (stereo not given in full)
IC50 (MDA-MB-231): 5.02 µM | IC50 (HepG2 [1]): 0.971 µM | IC50 (KB): 7.28 µM | IC50 (Bel-7402): > 10 µM | IC50 (SMMC-7721): > 10 µM | IC50 (MGC-803): 0.971 µM | IC50 (SK-N-SH): 0.194 µM | IC50 (QGY-7703): > 10 µM | IC50 (SGC-7901): > 10 µM | inhibition in vivo at 30 mg/kg (HepG2 [2]): 90% | inhibition in vivo at 4 mg/kg (HepG2 [3]): 83% | inhibition in vivo at 8 mg/kg (HepG2 [4]): 93% | inhibition in vivo at 1.3 mg/kg (HepG2 [5]): 93% | Activity (Mus musculus [6]): Toxic | Activity (Mus musculus [7]): Toxic | Activity (Mus musculus [8]): Toxic | Activity (Mus musculus [9]): Non-Toxic | Activity (Mus musculus [10]): Non-Toxic | Activity (Mus musculus [11]): Non-Toxic | Activity (Mus musculus [12]): Non-Toxic | Activity (Mus musculus [13]): Non-Toxic | Activity (Mus musculus [14]): Non-Toxic | Activity (Mus musculus [15]): 100% | Drug uptake [16]: Not Active | Drug metabolism [17]: Metabolite_Notdetected | Drug metabolism [18]: Metabolite_Notdetected | Drug metabolism [19]: Metabolite_Notdetected | IC50 (A549): 6.47 µM | IC50 (MCF7): > 10 µM

CC[C@@]1(O)C(=O)OCc2c1cc1n(c2=O)Cc2cc3c(CN(C)C)c(O)ccc3nc2-1 [TOPOTECAN]
IC50 (MDA-MB-231): 1.9 µM | IC50 (HepG2 [1]): 0.237 µM | IC50 (Bel-7402): 7.12 µM | IC50 (SMMC-7721): 11.6 µM | IC50 (MGC-803): 0.19 µM | IC50 (SK-N-SH): 0.093 µM | IC50 (QGY-7703): 11.9 µM | IC50 (SGC-7901): > 10 µM | solubility [20]: < 1000 µg/mL | MTD (Mus musculus [21]): 2 mg/kg | TGI (HepG2 [22]): Active | inhibition in vivo at 2 mg/kg (HepG2 [23]): 74% | inhibition [24]: Active | inhibition [25]: Active | Activity (Mus musculus [26]): Toxic | IC50 (MCF7): 2.14 µM
